Converted amounts (≈) assume the structure as drawn. “And” between values parts separate entries of the source, which are not always exact repeats. Identical values can stand only once. “Also recorded” adds a separate entry of the source. Like-named read-outs stand apart in the source and are kept apart here.
Legend:
[1] = Room temperature water solubility; format: physicochemical
Description: In the following examples, all melting points are uncorrected and were recorded on a Thomas-Hoover capillary melting point apparatus. Elemental analyses were performed by NIAMDD, NIH, Bethesda, Maryland. Fluoranil, ethyleneimine and 2l -methylethyleneimine were obtained commerically. […] New compounds were identified by nmr and ir spectroscopy. In the tetraamino derivatives, the methylene protons of the aziridine rings usually occurred as a singlet at δ2.0-2.2 in CDCl3 or DMSO-d6. This absorption appeared at δ2.40 (CDCl3) for compound 11. Carbonyl absorption frequencies (nujol mull) occurred in the range 1620-1640 cm^-1 for the tetraamino compounds. Satisfactory elemental analyses (+0.4% of calculated values) are indicated by elemental symbols in Table VII. Room temperature water solubilities were determined by the incremental addition (pipet) of water to a weighed amount of compound with shaking. The solubility values in Table VII must be considered as approximate.

[2] = tested on: P388 lymphocytic leukemia; experiment: Intraperitoneal (IP) lymphocytic leukemia P388 transplanted mouse tumor test; format: in vivo, murine; conditions: for OD (optimum dose) / ILS (percentage increase in life span) / animals alive per 6 test animals on day of termination: Table IX; for OD (optimum dose): IP P388, QD1-9; for ILS (percentage increase in life span) / animals alive per 6 test animals on day of termination: IP P388, QD1-9, at OD; for animals alive per 6 test animals on day of termination / survivors (number in parentheses) P388: day 30; for survivors (number in parentheses) P388: Table XI, per 6 test animals; for antitumor activity: IP P388; for cures: P388, 30 day survivors, QD1-9
From the text: (§1) ^b Ip tumor implantation, ip QD1-9 treatment schedule.
(§2) The L1210, P388 and B16 test systems described in Table II utilize intraperitoneal (IP) tumor implantation and IP drug treatment while the Lewis lung system employs subcutaneous tumor implantation and IP treatment.
(§3) Aqueous saline solution (0.9%) was used as the drug vehicle. Normally, five doses were employed per experiment with the top dose chosen to produce toxicity. The lower doses were 50% of each preceeding dose.
(§4) Consistent with NCI antitumor test protocols, intraperitoneal (IP) administration of the drug was employed with all five tumor systems investigated. Tumor implantation was IP in the systems designated IP leukemia L1210 and P388 as well as B16 melanoma.

ependymoblastoma = experiment: Intracerebral (IC) ependymoblastoma (EM) brain tumor test; format: in vivo, murine; conditions: for antitumor activity: IC ependymoblastoma (EM); for OD (optimum dose) / ILS (percentage increase in life span) / animals alive per 6 test animals on day of termination: Table X, IC ependymoblastoma; for OD (optimum dose): QD1-5; for ILS (percentage increase in life span) / animals alive per 6 test animals on day of termination: QD1-5, at OD
From the text: ^c Ic tumor implantation, ip QD1-5 treatment schedule.
^g Number of animals alive per six test animals on day of termination
of experiment (day 99 for expt 133 and day 60 for expt 136 and 144).
A third IC transplanted mouse tumor model, the ependymoblastoma system, was also studied. This system requires intracerebral implantation of a solid tumor fragment while the IC L1210 and IC P388 systems utilize IC inoculated ascites tumor fluid. All three use IP drug treatment however. […] Cures (survivors from the group of six mice on the last day of the experiment) are indicated. Experiments 136 and 144 were terminated on day 60. Since the number of cures was about the same, the differences in T/C values in these two experiments reflect differences in the life span of the two different sets of control animals. Experiment 133 was terminated on day 99 with a resulting higher activity value.
The hydrophilic dihydroxypropylamino compound (No. 39), which was curative in the IP L1210 and P388 leukemia systems, was active but gave a large spread in ILS values (53-186%). […] Again, its hydrophilic character may present transport problems in this IC tumor system.

lymphoid leukemia L1210 [3] = experiment: Intraperitoneal (IP) lymphoid leukemia L1210 transplanted mouse tumor test; format: in vivo, murine; conditions: for OD (optimum dose) / ILS (percentage increase in life span) / animals alive per 6 test animals on day of termination: Table VIII; for animals alive per 6 test animals on day of termination / survivors (number in parentheses) IP L1210: day 30; for ILS (%) IP L1210 / survivors (number in parentheses) IP L1210: Table XI; for ILS (%) IP L1210: outstanding activity; for survivors (number in parentheses) IP L1210: per 6 test animals; for maximum ILS: IP L1210; for antitumor activity: IP L1210, tetraaminobenzoquinone series (Table VIII); for cures: survivors on day 30, L1210
From the text: ^(a) Day 1-9 treatment schedule (9 injections)
^(b) Day 1,5,9 treatment schedule (3 injections)
^(c) Day 1 only treatment schedule (1 injection)
^(f) Percentage increase in life span of treated animals [(treated
survival .div. control survival) × 100%] - 100%

[4] = tested on: IP ascites tumor systems (leukemia L1210 and P388); experiment: IP ascites tumor systems (leukemia L1210 and P388); format: in vivo, murine
From the text: The criterion for minimum activity, %ILS, is defined here as follows: Intraperitoneal and intracerebral leukemia L1210 and intraperitoneal leukemia P388, 25%; intraperitoneal B16 melanoma and intracerebral ependymoblastoma, 40%. Consistent with NCI antitumor test protocols, intraperitoneal (IP) administration of the drug was employed with all five tumor systems investigated. Tumor implantation was IP in the systems designated IP leukemia L1210 and P388 as well as B16 melanoma. Intracerebral (IC) tumor implantation was utilized in the IC L1210 and ependymoblastoma tumor systems.

lymphoid leukemia L1210 [5] = experiment: Intracerebral (IC) lymphoid leukemia L1210 test; format: in vivo, murine; conditions: for antitumor activity: IC L1210; for OD (optimum dose) / ILS (percentage increase in life span): Table X; for OD (optimum dose): IC L1210, QD1-9; for ILS (percentage increase in life span): IC L1210, QD1-9, at OD; for ILS (%) IC L1210: Table XI, outstanding activity
From the text: ^b Ic tumor implantation, ip QD1-9 treatment schedule.
The L1210, P388 and B16 test systems described in Table II utilize intraperitoneal (IP) tumor implantation and IP drug treatment while the Lewis lung system employs subcutaneous tumor implantation and IP treatment. All three CNS tumor models (Table III) use intracerebral (IC) tumor implantation and IP treatment.
Consistent with NCI antitumor test protocols, intraperitoneal (IP) administration of the drug was employed with all five tumor systems investigated. Tumor implantation was IP in the systems designated IP leukemia L1210 and P388 as well as B16 melanoma. Intracerebral (IC) tumor implantation was utilized in the IC L1210 and ependymoblastoma tumor systems.

B16 melanocarcinoma = experiment: Intraperitoneal B16 melanocarcinoma transplanted mouse tumor test; format: in vivo, murine; conditions: for ILS (percentage increase in life span) / OD (optimum dose): Table IX; for ILS (percentage increase in life span): B16, QD1-9, at OD; for antitumor activity: B16 melanoma; for OD (optimum dose): B16, QD1-9; for ILS (%) B16: Table XI, outstanding activity
From the text: as §1, §2, §3, §4

[6] = Octanol/H2O partition coefficient (log P); format: physicochemical; conditions: Table VII, octanol/H2O; for logP: octanol/water
From the text: ^(b) Octanol/H2 O values determined by C. Hansch and M. Yamakawa

[7] = water, Table VII, room temperature, approximate, read-out: Approx. H2O Sol.
[8] = IP L1210, Day 1 only (1 injection)
[9] = IP L1210, Q4D(1,5,9) (3 injections)

SMILES | solubility [1, 7] [mg/mL] | OD (optimum dose) [2] | ILS (percentage increase in life span) [2] | animals alive per 6 test animals on day of termination [2] | survivors (number in parentheses) P388 [2] | antitumor activity (ependymoblastoma) | OD (optimum dose) (ependymoblastoma) | ILS (percentage increase in life span) (ependymoblastoma) | OD (optimum dose) (lymphoid leukemia L1210 [3]; [8]) | OD (optimum dose) (lymphoid leukemia L1210 [3]; IP L1210, QD1-9 (9 injections)) | ILS (%) IP L1210 (lymphoid leukemia L1210 [3]) [%] | survivors (number in parentheses) IP L1210 (lymphoid leukemia L1210 [3]) | antitumor activity [4] | antitumor activity (lymphoid leukemia L1210 [5]) | OD (optimum dose) (lymphoid leukemia L1210 [5]) | ILS (percentage increase in life span) (lymphoid leukemia L1210 [5]) | ILS (percentage increase in life span) (B16 melanocarcinoma) | OD (optimum dose) (lymphoid leukemia L1210 [3]; [9]) | antitumor activity (B16 melanocarcinoma) | OD (optimum dose) (B16 melanocarcinoma) | also measured
NC1=C(N2CC2)C(=O)C(N)=C(N2CC2)C1=O [Compound 33, 2,5-Dizairidinyl-3,6-diamino-1,4-benzoquinone] | < 0.1 | 0.2 mg/kg/injection | 171% and 156% | 1 | 1 | among the most active materials | 0.2 mg/kg/injection | 215% and 177% | 1.0 mg/kg/injection and 0.5 mg/kg/injection | 0.4 mg/kg/injection and 0.3 mg/kg/injection | 161 | 3 | active | most active; also recorded: significant activity | 0.3 mg/kg/injection | 60% and 59% | 31% and 19% | – | – | – | solubility [1]: insoluble in any solvent; also recorded: exceptionally insoluble; animals alive per 6 test animals on day of termination (ependymoblastoma; day 60): 4 and 6; survivors (number in parentheses) EM (ependymoblastoma; Table XI, per 6 test animals, day 60): 6; ILS (percentage increase in life span) (lymphoid leukemia L1210 [3]; IP L1210, Q4D(1,5,9), at OD): 161% and 124%; animals alive per 6 test animals on day of termination (lymphoid leukemia L1210 [3]; IP L1210, Q4D(1,5,9), at OD): 3 and 2; ILS (percentage increase in life span) (lymphoid leukemia L1210 [3]; IP L1210, QD1-9, at OD): 115% and 100%; ILS (%) IC L1210 (lymphoid leukemia L1210 [5]): 60%
O=C1C(NCCO)=C(N2CC2)C(=O)C(NCCO)=C1N1CC1 [Compound 38] | 2 (≈ 6.49 mM) | 0.4 mg/kg/injection | 175% and 160% | 3 and 2 | 3 | – | 1.5 mg/kg/injection | 83% and 70% | 1.5 mg/kg/injection | 0.7 mg/kg/injection | 205 | 2 | most active; also recorded: superior | marginal | 0.75 mg/kg/injection | 57% and 48% | 61% and 51% | 0.7 mg/kg/injection | active | 0.4 mg/kg/injection | antitumor activity [2]: very active; cures [2]: multiple cures; logP [6]: -1.48; maximum ILS (lymphoid leukemia L1210 [3]): > 200%; antitumor activity (lymphoid leukemia L1210 [3]): Excellent activity; ILS (percentage increase in life span) (lymphoid leukemia L1210 [3]; IP L1210, Day 1 only, at OD): 175% and 119%; animals alive per 6 test animals on day of termination (lymphoid leukemia L1210 [3]; IP L1210, Day 1 only, at OD): 5 and 3; ILS (percentage increase in life span) (lymphoid leukemia L1210 [3]; IP L1210, Q4D(1,5,9), at OD): 131% and 70%; ILS (percentage increase in life span) (lymphoid leukemia L1210 [3]; IP L1210, QD1-9, at OD): 205% and 134%; animals alive per 6 test animals on day of termination (lymphoid leukemia L1210 [3]; IP L1210, QD1-9, at OD): 2 and 3; cures (lymphoid leukemia L1210 [3]): produced cures; cures (lymphoid leukemia L1210 [3]; listed as hydroxyethylamino): Multiple cures; ILS (%) IC L1210 (lymphoid leukemia L1210 [5]): 57%; ILS (%) B16 (B16 melanocarcinoma): 61%
O=C1C(NCC(O)CO)=C(N2CC2)C(=O)C(NCC(O)CO)=C1N1CC1 (stereo not shown) [Compound 39] | 30 (≈ 81.4 mM) | 4.0 mg/kg/injection | 143% and 141% | 6 and 4 | 6 | moderate to good EM activity | – | 99% and 53% | 4.0 mg/kg/injection and 2.0 mg/kg/injection | 4.0 mg/kg/injection and 2.0 mg/kg/injection | 206 | 5 | curative; also recorded: probably the most active compound | marginal | 4.0 mg/kg/injection | 41% and 43% | 50% and 42% | 4.0 mg/kg/injection and 8.0 mg/kg/injection | active | 4.0 mg/kg/injection and 6.0 mg/kg/injection | antitumor activity [2]: very active; cures [2]: multiple cures; ILS values (spread) (ependymoblastoma; EM, repeat tests): 53-186%; animals alive per 6 test animals on day of termination (ependymoblastoma; day 60): 1; log P [6]: -1.97; maximum ILS (lymphoid leukemia L1210 [3]): > 200%; antitumor activity (lymphoid leukemia L1210 [3]): Excellent activity; animals alive per 6 test animals on day of termination (lymphoid leukemia L1210 [3]; IP L1210, Day 1 only, at OD): 4; cures (lymphoid leukemia L1210 [3]): produced cures; cures (lymphoid leukemia L1210 [3]; listed as dihydroxypropylamino): Multiple cures; ILS (%) B16 (B16 melanocarcinoma): 50%
CN(CCO)C1=C(N2CC2)C(=O)C(N(C)CCO)=C(N2CC2)C1=O [Compound 42] | 60 (≈ 178 mM) | 1.6 mg/kg/injection and 0.8 mg/kg/injection | 162% and 145% | – | – | – | 0.4 mg/kg/injection and 0.2 mg/kg/injection | 84% and 69% | – | 1.5 mg/kg/injection | 114 | 1 | – | – | 4.0 mg/kg/injection and 2.0 mg/kg/injection | 45% and 32% | 47% and 31% | 0.4 mg/kg/injection and 0.2 mg/kg/injection | approached minimal reproducible activity | 0.8 mg/kg/injection | logP [6]: -0.38; animals alive per 6 test animals on day of termination (lymphoid leukemia L1210 [3]; IP L1210, QD1-9, at OD): 1

Reference: patent publication US4146622A, “Aziridinyl quinone anti-transplanted tumor agents” (priority 1977, dated 1979)
